Legend:
Assay type in all cases: biochemical
[1] = molecular target: T1, catalase (from bovine liver), cleavable DTSSP cross-linked cl-nanozyme with PEG-pLL50, non-purified (C2) (Bos taurus, UniProt P00432); assay: Catalytic constants of DTSSP cross-linked catalase cl-nanozyme (C2) from effect of H2O2 concentration on rate of H2O2 decomposition
T1 construct: purchased Calbiochem (Gibbstown, N.J.); host or cells: bovine liver
T1 sequence (P00432 2-527 limits assumed): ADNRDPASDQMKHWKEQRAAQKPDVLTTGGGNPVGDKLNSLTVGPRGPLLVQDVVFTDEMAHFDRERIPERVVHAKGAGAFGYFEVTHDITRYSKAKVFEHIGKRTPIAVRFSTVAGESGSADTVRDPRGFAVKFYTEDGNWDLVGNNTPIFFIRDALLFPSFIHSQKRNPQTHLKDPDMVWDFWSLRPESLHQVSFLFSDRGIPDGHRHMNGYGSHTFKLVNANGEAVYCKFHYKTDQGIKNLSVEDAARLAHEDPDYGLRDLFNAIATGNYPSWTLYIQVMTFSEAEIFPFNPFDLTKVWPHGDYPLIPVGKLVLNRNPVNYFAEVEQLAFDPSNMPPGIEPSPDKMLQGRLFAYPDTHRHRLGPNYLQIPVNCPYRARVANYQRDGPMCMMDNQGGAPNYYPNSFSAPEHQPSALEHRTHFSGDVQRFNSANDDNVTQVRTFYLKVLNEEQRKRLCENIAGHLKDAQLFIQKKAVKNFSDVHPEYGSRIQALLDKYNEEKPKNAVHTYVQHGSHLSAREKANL
Experimental: (§1) SOD1 (from bovine erythrocytes), hydrogen peroxide (H2O2), 2,3,5-triphenyltetrazolium chloride (TTC) and copper standards for Inductively Coupled Plasma Mass Spectroscopy (ICP-MS)— TraceCERT®, 1000 mg/L Cu in nitric acid) were from Sigma-Aldrich (St. Louis, Mo.). Catalase (from bovine liver) was from Calbiochem (Gibbstown, N.J.). PEG-pLL50 was from Alamanda Polymers™ (Huntsville, Ala.). […] Cross-linkers 3,3′-dithiobis(sulfosuccinimidylpropionate) (DTSSP) and bis(sulfosuccinimidyl)suberate (BS^3) were from Thermo Fisher Scientific (Rockford, Ill.). NAP™ desalting columns and HiPrep 16/60 Sephacryl S-400 HR column were from GE Healthcare (Piscataway, N.J.). Criterion Tris-HCl gels and Precision Plus Protein™ All Blue Standards were from Bio-Rad (Hercules, Calif.). SYPRO® Ruby protein gel stain and cell culture reagents were purchased from Invitrogen (Carlsbad, Calif.). CellTiter 96® AQueous One Solution Cell Proliferation Assay (MTS) was from Promega (Madison, Wis.). LumiMax Superoxide Anion Detection Kit was from Agilent Technologies, Inc. (Santa Clara, Calif.). All other reagents and supplies were from Fisher Scientific (Pittsburgh, Pa.) unless noted otherwise.
(§2) Enzyme and polymer stock solutions were prepared in 10 mM HEPES (pH 7.4) and 10 mM HEPES-buffered saline (HBS; pH 7.4) for SOD1 and catalase, respectively. Non-cross-linked BICs (Z+/−=2) were prepared as described (Klyachko et al. (2012) Nanomed. Nanotechnol. Biol. Med., 8:119-129). Targeted degree of cross-linking was defined as the molar ratio between cross-linker (DTSSP/BS^3) and pLL amines Precalculated amount of the respective cross-linker was dissolved in the reaction buffer (HEPES/HBS), quickly added to BICs, and the reaction mixture was briefly vortexed and incubated for 2 hours on ice. Unreacted crosslinker was desalted using NAP™ columns following manufacturer's instructions. Cl-Nanozymes were purified using size exclusion chromatography (SEC) (small/intermediate scale) or centrifugal filtration (large scale). […] Protein concentration was determined using Micro BCA™ Protein Assay Kit. […]

[2] = molecular target: T2, catalase (from bovine liver), native (nC) (Bos taurus, UniProt P00432); assay: Catalytic constants of native catalase (nC) from effect of H2O2 concentration on rate of H2O2 decomposition; conditions: H2O2 0 to 65 mM, catalase 2 μg/mL, 50 mM phosphate buffer pH 7.4, 240 nm, Lineweaver-Burk
T2 construct: purchased Calbiochem (Gibbstown, N.J.); host or cells: bovine liver
T2 sequence (P00432 2-527 limits assumed): T1 sequence (P00432 2-527 limits assumed)
Experimental: as §1

[3] = molecular target: T3, catalase (from bovine liver), cleavable DTSSP cross-linked cl-nanozyme with PEG-pLL50, purified (C2p) (Bos taurus, UniProt P00432); assay: Catalytic constants of purified DTSSP cross-linked catalase cl-nanozyme (C2p) from effect of H2O2 concentration on rate of H2O2 decomposition
T3 construct: purchased Calbiochem (Gibbstown, N.J.); host or cells: bovine liver
T3 sequence (P00432 2-527 limits assumed): T1 sequence (P00432 2-527 limits assumed)
Experimental: as §1
as §2, with “scale). SEC was carried out using an ÄKTA™ Fast Protein Liquid Chromatography (FPLC) (Amersham Biosciences, Piscataway, N.J.) system. DTSSP cl-nanozymes were lyophilized overnight, reconstituted in deionized water (DW), loaded onto a HiPrep 16/60 Sephacryl™ S-400 HR column and eluted using 10 mM HBS (pH 7.4) at a flow rate of 0.5 mL/minute. Prior to each experiment, the column was pre-conditioned with free block copolymer (PEG-pLL50) to minimize non-specific adsorption of the cl-nanozymes (Boeckle et al. (2004) J. Gene Med., 6:1102-1111).” for “scale).”

[4] = H2O2 0 to 65 mM, catalase 2 μg/mL, 50 mM phosphate buffer pH 7.4, 240 nm, Lineweaver-Burk, non-purified cl-nanozyme C2
[5] = H2O2 0 to 65 mM, catalase 2 μg/mL, 50 mM phosphate buffer pH 7.4, 240 nm, Lineweaver-Burk, purified cl-nanozyme C2p

OO [H2O2, hydrogen peroxide]
increase in Km value ([1]; C2 compared to native catalase (nC)): ca. 1.8 fold | Km [1, 4]: 94.1 mM | kcat [1, 4]: 1.56e+06 s⁻¹ | Km [2]: 53.2 mM | kcat [2]: 798000 s⁻¹ | kcat/Km lower than nC ([3]; C2p compared to native catalase (nC)): ca. 48% | kcat/Km lower than C2 ([3]; C2p compared to non-purified cl-nanozyme (C2)): ~53% | Km [3, 5]: 93.2 mM | kcat [3, 5]: 722000 s⁻¹
